Reference: US20070292888A1, “Methods for Measuring Enzyme Activities in Cells, Blood, Tumors and Tissues” (GEN-PATH PHARMACEUTICALS, INC., priority 2004, published 2007)

Biological target: T1, kGDH (Homo sapiens, UniProt Q02218)
T1 construct: Log-phase growing cells were trypsinized and resuspended in TDM; endogenous in cells
T1 sequence (Q02218 41-1023): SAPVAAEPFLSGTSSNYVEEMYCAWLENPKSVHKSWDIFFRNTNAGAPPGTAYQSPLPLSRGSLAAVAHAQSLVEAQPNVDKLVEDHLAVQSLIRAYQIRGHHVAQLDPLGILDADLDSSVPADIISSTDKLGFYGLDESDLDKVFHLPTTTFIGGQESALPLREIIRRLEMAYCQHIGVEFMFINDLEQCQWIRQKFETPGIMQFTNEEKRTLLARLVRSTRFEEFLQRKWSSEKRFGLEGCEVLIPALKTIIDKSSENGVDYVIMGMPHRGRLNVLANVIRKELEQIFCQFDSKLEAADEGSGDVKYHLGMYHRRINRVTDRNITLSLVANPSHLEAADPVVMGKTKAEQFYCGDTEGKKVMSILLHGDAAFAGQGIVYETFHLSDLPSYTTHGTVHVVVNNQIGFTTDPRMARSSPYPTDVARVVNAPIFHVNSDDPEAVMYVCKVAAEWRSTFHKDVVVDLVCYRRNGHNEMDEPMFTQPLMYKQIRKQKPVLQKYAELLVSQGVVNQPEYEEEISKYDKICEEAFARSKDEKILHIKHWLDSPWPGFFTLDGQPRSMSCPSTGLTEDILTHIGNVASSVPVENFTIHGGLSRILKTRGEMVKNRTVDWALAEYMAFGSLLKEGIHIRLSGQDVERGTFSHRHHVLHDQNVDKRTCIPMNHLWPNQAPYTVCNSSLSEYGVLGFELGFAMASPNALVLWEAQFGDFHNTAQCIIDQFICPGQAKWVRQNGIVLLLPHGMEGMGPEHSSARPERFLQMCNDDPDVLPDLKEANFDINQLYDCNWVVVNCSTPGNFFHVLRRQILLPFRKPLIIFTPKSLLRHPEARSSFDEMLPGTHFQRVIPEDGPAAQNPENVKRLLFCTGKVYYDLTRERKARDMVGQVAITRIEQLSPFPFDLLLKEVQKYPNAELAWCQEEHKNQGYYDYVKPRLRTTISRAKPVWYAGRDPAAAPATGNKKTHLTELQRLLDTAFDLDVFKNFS
T1 sequence (P36957 68-453 partner): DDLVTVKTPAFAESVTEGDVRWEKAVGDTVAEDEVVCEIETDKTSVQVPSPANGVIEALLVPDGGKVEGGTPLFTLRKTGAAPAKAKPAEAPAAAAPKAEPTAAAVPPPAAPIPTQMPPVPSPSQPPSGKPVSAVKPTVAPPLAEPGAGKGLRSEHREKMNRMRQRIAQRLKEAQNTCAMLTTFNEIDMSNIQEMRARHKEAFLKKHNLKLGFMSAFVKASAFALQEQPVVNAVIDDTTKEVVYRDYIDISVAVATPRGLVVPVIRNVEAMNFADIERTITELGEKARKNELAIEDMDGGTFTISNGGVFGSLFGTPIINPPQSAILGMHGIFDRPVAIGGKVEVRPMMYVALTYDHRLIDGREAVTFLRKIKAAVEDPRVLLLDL
T1 sequence (P09622 36-509 partner): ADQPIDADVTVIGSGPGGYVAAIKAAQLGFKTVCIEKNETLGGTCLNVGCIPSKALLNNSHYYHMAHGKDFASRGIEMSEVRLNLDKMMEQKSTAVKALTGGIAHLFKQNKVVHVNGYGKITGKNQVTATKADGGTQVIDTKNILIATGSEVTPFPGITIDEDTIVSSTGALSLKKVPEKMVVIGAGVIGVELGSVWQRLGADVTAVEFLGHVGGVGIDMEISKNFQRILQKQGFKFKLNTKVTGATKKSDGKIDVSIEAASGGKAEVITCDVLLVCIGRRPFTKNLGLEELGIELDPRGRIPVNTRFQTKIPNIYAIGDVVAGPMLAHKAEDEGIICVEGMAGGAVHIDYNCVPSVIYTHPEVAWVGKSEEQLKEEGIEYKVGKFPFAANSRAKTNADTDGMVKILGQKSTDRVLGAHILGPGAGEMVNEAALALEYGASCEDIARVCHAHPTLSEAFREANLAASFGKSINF
Experiment: Cell-based kGDH inhibition in thiamine-depleted media, 96-well format
Details: treated cells, 48 hours treatment
Experimental: We determined the IC50 of compounds that inhibit the activity of the TPP utilizing enzymes TK, kGDH and PDH in a convenient 96-well format using an optimized version of the method described in the previous Examples.
The high thiamine levels in conventional cell culture media (e.g., DMEM (12 μM), RPMI (3 μM)) masks the inhibitory effect of such inhibitors. To measure the IC50 of such inhibitors, thus, a thiamine depleted DMEM, containing all the ingredients of normal DMEM except for thiamine (HyClone, custom order), was used. Thiamine-depleted media (TDM) is made up with thiamine-depleted DMEM, 10% FBS, which contains negligible amount of thiamine (estimated to be ˜3-5% nM) and 1% Penicillin-streptomycin.
Log-phase growing cells were trypsinized and resuspended in TDM. Optimization of the initial cell counts is recommended for each cell line to ensure that enzyme activity can be observed at the beginning and that healthy growth can continue. For cell lines that have a doubling time of approximately 24 hours and cellular transketolase levels high enough to be reliably detected with five thousand (5K) cells such as HCT116 and HT1080, 8K cells are recommended.
Media containing 8K cells (95 μl) were used to seed individual wells in a 96-well clear-bottom cell cultured treated sterile plate. […] Enzymatic inhibition was expressed as percent of control wells that were not treated with compounds. […]

**Q.** How did the IC50 turn out when `Cc1ccc(C[n+]2csc(CCO)c2C)c(N)n1` [N3PT, 3-[(2-amino-6-methyl-3-pyridinyl)methyl]-5-(2-hydroxyethyl)-4-methyl thiazolium] was run?
**A.** 86 nM
